Laboratory results reported in patent US11530226B2, “Azepane inhibitors of menin-MLL interaction” (Janssen Pharmaceutica NV, priority 2016, dated 2022).

Assays:
[1] = molecular target: T1, terbium chelate-labeled menin / FITC-MBM1 peptide (Menin/MLL) (Homo sapiens, UniProt O00255, T541A); experiment: Menin/MLL homogenous time-resolved fluorescence (HTRF) assay; format: binding; conditions: read-out: (2) Menin HTRF assay (IC50 (nM))
T1 construct: Menin (a. a. l-610-6×his tag) was labeled with terbium cryptate as follows
T1 sequence (O00255 with tags, fused parts or gaps T541A): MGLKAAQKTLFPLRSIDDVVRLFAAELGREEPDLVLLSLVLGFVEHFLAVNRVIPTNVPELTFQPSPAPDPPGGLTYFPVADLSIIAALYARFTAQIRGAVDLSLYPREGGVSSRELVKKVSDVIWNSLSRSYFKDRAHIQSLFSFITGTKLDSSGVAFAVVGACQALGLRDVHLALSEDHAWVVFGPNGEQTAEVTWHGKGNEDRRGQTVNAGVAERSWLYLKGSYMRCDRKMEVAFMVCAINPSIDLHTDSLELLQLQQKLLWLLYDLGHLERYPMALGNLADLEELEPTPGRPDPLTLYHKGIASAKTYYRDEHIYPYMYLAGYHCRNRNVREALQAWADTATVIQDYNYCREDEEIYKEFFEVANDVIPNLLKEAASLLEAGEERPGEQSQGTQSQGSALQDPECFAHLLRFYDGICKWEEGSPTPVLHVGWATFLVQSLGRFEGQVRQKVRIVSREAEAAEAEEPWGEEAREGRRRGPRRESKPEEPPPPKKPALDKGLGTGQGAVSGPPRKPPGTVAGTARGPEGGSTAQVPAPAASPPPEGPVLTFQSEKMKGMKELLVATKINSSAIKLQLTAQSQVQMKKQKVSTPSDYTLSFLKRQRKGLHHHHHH
Protocol: 2) Menin/MLL Homogenous Time-Resolved Fluorescence (HTRF) Assay
To an untreated, white 384-well microtiter plate was added 40 nL 200× test compound in DMSO and 4 μL 2× terbium chelate-labeled menin (vide infra for preparation) in assay buffer (40 mM Tris .HCl, pH 7.5, 50 mM NaCl, 1 mM DTT and 0.05% Pluronic F-127). After incubation of test compound and terbium chelate-labeled menin for 5 min at ambient temperature, 4 μL 2×FITC-MBM1 peptide (FITC-P-alanine-SARWRFPARPGT-NH2) in assay buffer was added, the microtiter plate centrifuged at 1000 rpm for 1 min and the assay mixtures incubated for 15 min at ambient temperature. The relative amount of menin ⋅FITC-MBM1 complex present in an assay mixture is determined by measuring the homogenous time-resolved fluorescence (HTRF) of the terbium/FITC donor/acceptor fluorphore pair using a BMG Pherastar plate reader (ex. 337 nm/terbium cm. 490 nm/FITC cm. 520 nm) at ambient temperature. The degree of fluorescence resonance energy transfer (the HTRF value) is expressed as the ratio of the fluorescence emission intensities of the FITC and terbium fluorophores (P^m 520 nm//F^em 490 nm). The final concentrations of reagents in the binding assay are 100 pM terbium chelate-labeled menin, 75 nM FITC-MBM1 peptide and 0.5%) DMSO in assay buffer. Dose-response titrations of test compounds are conducted using an 11 point, three-fold serial dilution scheme, starting typically at 25 μM.
Compound potencies were determined by first calculating % inhibition at each compound concentration according to equation 1: % inhibition=((HC−LC)−(HTRF^compound−LC))/(HC−LC))*100 (Eqn 1)
Where LC and HC are the HTRF values of the assay in the presence or absence of a saturating concentration of a compound that competes with FITC-MBM1 for binding to menin, and HTRF^compound is the measured HTRF value in the presence of the test compound. HC and LC HTRF values represent an average of at least 16 replicates per plate.
Where Bottom and Top are the lower and upper asymptotes of the dose-response curve, respectively, IC50 is the concentration of compound that yields 50% inhibition of signal and h is the Hill coefficient.
Preparation of Terbium cryptate labeling of Menin: Menin (a. a. l-610-6×his tag) was labeled with terbium cryptate as follows. 2 mg of Menin was buffer exchanged into 1× phosphate buffered saline. 16 uM Menin was incubated with 4-fold molar excess NHS-terbium cryptate (Cisbio Bioassays, Bedford, Mass.) for 2 hours at room temperature. The labeled protein was purified away from free label by running the reaction over a Superdex 200 Increase 10/300 GL column at 0.75 ml/min. Peak fractions were collected, aliquoted and frozen at −80° C.

MV-4-1 1 cells (MLL-AF4) = experiment: Proliferation assay (spheroid-like growth, 8 d, live-cell imaging), MV-4-11; format: cell-based, human; conditions: Homo sapiens, MV4-11, 192 h, MV-4-11 cells, absolute IC50 from AUC of confluence, read-out: (3) Spheroid assay MV-4-11 (IC50 (μM))
Protocol: The anti-proliferative effect of menin/MLL protein/protein interaction inhibitor test compounds was assessed in human leukemia cell lines. The cell lines MV-4-1 1 and MOLM14 harbor MEL translocations and express the MEL fusion proteins MLL-AF4 and MLL-AF9, respectively, as well as the wildtype protein from the second allele. […] K562 was used as a control cell line containing two MLL wildtype alleles in order to exclude compounds that display general cytotoxic effects.
MV-4-1 1 and MOLM14 were cultured in RPMI-1640 (Sigma Aldrich) supplemented with 10% fetal bovine serum (HyClone), 2 mM L-glutamine (Sigma Aldrich) and 50 μg/ml gentamycin (Gibco). K562 were propagated in RPMI-1640 (Sigma Aldrich) supplemented with 20% fetal bovine serum (HyClone), 2 mM L-glutamine (Sigma Aldrich) and 50 μg/ml gentamycin (Gibco).
In order to assess the anti-proliferative effects, 1,500 MV-4-1 1, 300 MOLM14 or 750 K562 cells were seeded in 200 μl media per well in 96-well round bottom, ultra-low attachment plates (Costar, catalogue number 7007). Cell seeding numbers were chosen based on growth curves to ensure linear growth throughout the experiment. Test compounds were added at different concentrations and the DMSO content was normalized to 0.3%>. Cells were incubated for 8d at 37° C. and 5% C02. Spheroid like growth was monitored in real-time by live-cell imaging (IncuCyteZOOM, Essenbio, 4× objective) acquiring one image every four hours for 8d. Confluence (%) as a measure of spheroid size was determined using an integrated analysis tool.
In order to determine the cumulative effect of the test compounds over time, the area under the curve (AUC) in a plot of confluence against time was calculated. Confluence at the beginning of the experiment (t=0) was used as baseline for the AUC calculation.
Absolute IC50 values were calculated according to the following procedure: % Control=(AUC sample/AUC control)*100 AUC control=mean AUC of control values(cells without compound/DMSO as vehicle control)
A non-linear curve fit was applied using the least squares (ordinary) fit method to the plot of % control versus compound concentration. Based on this, the absolute IC50 value (half maximal inhibitory concentration of the test compound causing an anti-proliferative effect of 50% relative to the vehicle control) was calculated.

Row | Structure (SMILES) | IC50 [1] | IC50 (MV-4-1 1 cells (MLL-AF4))
1 | Cn1cc(CNC2CCCN(c3ncnc4sc(CC(F)(F)F)cc34)CC2)cn1 (single isomer, unassigned) [Compound 11B] | 1470 nM | –
2 | CC(C)N[C@@H]1CCCN(c2ncnc3sc(CC(F)(F)F)cc23)CC1 (single isomer, unassigned) [Compound 13A] | 5270 nM | –
3 | CC(C)NC1CCCN(c2ncnc3sc(CC(F)(F)F)cc23)CC1 (single isomer, unassigned) [Compound 13B] | 2460 nM | –
4 | CC(C)[C@@H](N[C@@H]1CCCN(c2ncnc3sc(CC(F)(F)F)cc23)CC1)C1CNC1 (single isomer, unassigned) [Compound 35] | 1010 nM | –
5 | C[C@@H](N[C@@H]1CCCN(c2ncnc3sc(CC(F)(F)F)cc23)CC1)c1cnn(C)c1 (single isomer, unassigned) [Compound 54A] | 11900 nM | –
6 | C[C@H](N[C@@H]1CCCN(c2ncnc3sc(CC(F)(F)F)cc23)CC1)c1cnn(C)c1 (single isomer, unassigned) [Compound 54B] | 13200 nM | –
7 | C[C@H](N[C@H]1CCCN(c2ncnc3sc(CC(F)(F)F)cc23)CC1)c1cnn(C)c1 (single isomer, unassigned) [Compound 54C] | 1490 nM | –
8 | C[C@@H](N[C@H]1CCCN(c2ncnc3sc(CC(F)(F)F)cc23)CC1)c1cnn(C)c1 (single isomer, unassigned) [Compound 54D] | 6760 nM | –
9 | CC(C)CN(Cc1cnn(C)c1)[C@@H]1CCCN(c2ncnc3sc(CC(F)(F)F)cc23)CC1 (single isomer, unassigned) [Compound 58A] | 1550 nM | –
10 | FC(F)(F)Cc1cc2c(N3CCC[C@H](N(Cc4ccccc4)C4COC4)CC3)ncnc2s1 (single isomer, unassigned) [Compound 59B] | 1150 nM | –
11 | Cn1ncc2c1CCC[C@H]2N[C@@H]1CCCN(c2ncnc3sc(CC(F)(F)F)cc23)CC1 (single isomer, unassigned) [Compound 65A] | 3500 nM | –
12 | Cn1cc2c(n1)CCC[C@H]2N[C@@H]1CCCN(c2ncnc3sc(CC(F)(F)F)cc23)CC1 (single isomer, unassigned) [Compound 66A] | 7440 nM | –
13 | Cn1cc2c(n1)CCC[C@H]2N[C@H]1CCCN(c2ncnc3sc(CC(F)(F)F)cc23)CC1 (single isomer, unassigned) [Compound 66C] | 5380 nM | –
14 | O=C(NC1CCCN(c2ncnc3sc(CC(F)(F)F)cc23)CC1)[C@H]1CC2(CC2)CN1 (stereo partly shown) [Compound 10A] | 1530 nM | –
15 | CC(C)[C@@H](CO)N[C@@H]1CCCN(c2ncnc3sc(CC(F)(F)F)cc23)CC1 [Compound 14A] | 4470 nM | –
16 | CNC(=O)[C@@H](NC1CCCN(c2ncnc3sc(CC(F)(F)F)cc23)CC1)C(C)C (stereo partly shown) [Compound 52] | 20800 nM | –
17 | Cn1ncc2c1CCC[C@@H]2N[C@H]1CCCN(c2ncnc3sc(CC(F)(F)F)cc23)CC1 [Compound 65D] | 8690 nM | –

Stronger by IC50 [1], values ahead:

Row | IC50 [1] | IC50 (MV-4-1 1 cells (MLL-AF4)) | Structure (SMILES)
18 | 69 nM | 2 µM | Cn1cc(CNC2CCCN(c3ncnc4sc(CC(F)(F)F)cc34)CC2)cn1 (racemic) [Compound 11]
19 | 548 nM | – | Cc1ccc(CN[C@@H]2CCCN(c3ncnc4sc(CC(F)(F)F)cc34)CC2)c(C)c1 (single isomer, unassigned) [Compound 9A]
20 | 22 nM | 0.9 µM | Cc1ccc(CN[C@H]2CCCN(c3ncnc4sc(CC(F)(F)F)cc34)CC2)c(C)c1 (single isomer, unassigned) [Compound 9B]
21 | 55 nM | 1.6 µM | Cn1cc(CNC2CCCN(c3ncnc4sc(CC(F)(F)F)cc34)CC2)cn1 (single isomer, unassigned) [Compound 11A]
22 | 27 nM | – | FC(F)(F)Cc1cc2c(N3CCC[C@@H](NCc4cn[nH]c4)CC3)ncnc2s1 (single isomer, unassigned) [Compound 26]
23 | 149 nM | 3.4 µM | Cn1cncc1CN[C@@H]1CCCN(c2ncnc3sc(CC(F)(F)F)cc23)CC1 (single isomer, unassigned) [Compound 28]
24 | 758 nM | – | CC(C)[C@H](N[C@H]1CCCN(c2ncnc3sc(CC(F)(F)F)cc23)CC1)C1CNC1 (single isomer, unassigned) [Compound 32]
25 | 888 nM | – | CC(C)CN(Cc1cnn(C)c1)[C@H]1CCCN(c2ncnc3sc(CC(F)(F)F)cc23)CC1 (single isomer, unassigned) [Compound 58B]
26 | 709 nM | – | FC(F)(F)Cc1cc2c(N3CCC[C@@H](N(Cc4ccccc4)C4COC4)CC3)ncnc2s1 (single isomer, unassigned) [Compound 59A]
27 | 880 nM | – | Cn1cc2c(n1)CCC[C@@H]2N[C@H]1CCCN(c2ncnc3sc(CC(F)(F)F)cc23)CC1 (single isomer, unassigned) [Compound 66D]
28 | 522 nM | – | C[C@@H]1CCN(c2ncnc3sc(CC(F)(F)F)cc23)CC[C@@H]1NCc1ccccc1 (single isomer, unassigned) [Compound 68B]
29 | 767 nM | – | CC(C)[C@@H](CO)N[C@H]1CCCN(c2ncnc3sc(CC(F)(F)F)cc23)CC1 [Compound 14B]
30 | 852 nM | – | CNCCN(Cc1cnn(C)c1)C1CCCN(c2ncnc3sc(CC(F)(F)F)cc23)CC1 (stereo not shown) [Compound 39]
31 | 227 nM | – | FC(F)(F)Cc1cc2c(N3CCCC(NCC4CCOCC4)CC3)ncnc2s1 (stereo not shown) [Compound 55]
32 | 724 nM | – | CN(C)CCCNC1CCCN(c2ncnc3sc(CC(F)(F)F)cc23)CC1 (stereo not shown) [Compound 56]
33 | 181 nM | – | CN(C)CCCCN(Cc1cnn(C)c1)C1CCCN(c2ncnc3sc(CC(F)(F)F)cc23)CC1 (stereo not shown) [Compound 61]
34 | 369 nM | – | CN(C)CCCN(Cc1cnn(C)c1)C1CCCN(c2ncnc3sc(CC(F)(F)F)cc23)CC1 (stereo not shown) [Compound 63]
35 | 686 nM | – | Cn1ncc2c1CCC[C@H]2N[C@H]1CCCN(c2ncnc3sc(CC(F)(F)F)cc23)CC1 [Compound 65C]
36 | 598 nM | – | FC(F)(F)Cc1cc2c(N3CCCC(NCc4ccncn4)CC3)ncnc2s1 (stereo not shown) [Compound 69]
